Assay results as given in ChEMBL document CHEMBL1138833, “Enantioselective synthesis and biological activity of (3S,4R)- and (3S,4S)-3-hydroxy-4-hydroxymethyl- 4-butanolides in relation to PGE2” (J Med Chem, 2004).

Tests used:
[1] = molecular target: Prostaglandin E2 receptor EP2 subtype (Homo sapiens) (UniProt P43116); assay: The percentage decrease in the binding of [3H]PGE2, in the presence of 1000 uM of compound
[2] = molecular target: Prostaglandin E2 receptor EP2 subtype (Homo sapiens) (UniProt P43116); assay: The percentage decrease in the binding of [3H]PGE2, in the presence of 125 uM of compound

Prostaglandin E2 receptor EP2 subtype (Homo sapiens), sequence (P43116 whole entry): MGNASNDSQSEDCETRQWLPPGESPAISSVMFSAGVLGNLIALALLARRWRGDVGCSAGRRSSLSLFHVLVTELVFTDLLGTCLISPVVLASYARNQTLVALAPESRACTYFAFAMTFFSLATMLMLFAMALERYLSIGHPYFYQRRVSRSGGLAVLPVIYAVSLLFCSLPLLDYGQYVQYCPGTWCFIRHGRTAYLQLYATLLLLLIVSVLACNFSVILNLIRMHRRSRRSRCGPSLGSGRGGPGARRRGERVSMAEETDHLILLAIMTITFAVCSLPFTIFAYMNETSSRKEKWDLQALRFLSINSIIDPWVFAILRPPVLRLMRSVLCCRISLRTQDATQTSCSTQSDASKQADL

Decrease [1] [%]	Decrease [2] [%]	Compound
33	78	O=C1C[C@H](O)[C@@H](CO)O1
73	–	O=C1C[C@H](O)[C@H](CO)O1
